Test results taken from US7968595B2, “Substituted 4-aryl-chromene as activator of caspases and inducer of apoptosis and as antivascular agent and the use thereof” (Cytovia, Inc., priority 2006, dated 2011).

Legend:
DLD-1 = assay: Caspase activation assay in DLD-1 cells; assay type: cell-based; conditions: Homo sapiens, 24 h incubation, read-out: Caspase activation potency EC50 DLD-1
Description: Human breast cancer cell lines T-47D and ZR-75-1, human colon cancer cell line DLD-1 and human non-small cell lung cancer cell line H1299 were grown according to media component mixtures designated by American Type Culture Collection+10% FCS (Invitrogen Corporation), in a 5% CO2−95% humidity incubator at 37° C. T-47D and ZR-75-1 cells were maintained at a cell density between 30 and 80% confluency at a cell density of 0.1 to 0.6×10^6 cells/mL. Cells were harvested at 600×g and resuspended at 0.65×10^6 cells/mL into appropriate media+10% FCS. An aliquot of […] of cells was added to a well of a 96-well microtiter plate containing 5 μl of a 10% DMSO in RPMI-1640 media solution containing about 0.16 to 10 μM of 2,7,8-triamino-4-(3-bromo-4,5-dimethoxy-phenyl)-3-cyano-4H-chromene (1) or other test compounds (0.016 to 1 μM final). An aliquot of 45 μl of cells was added to a well of a 96-well microtiter plate containing 5 μl of a 10% DMSO in RPMI-1640 media solution without test compound as the control sample. The samples were mixed by agitation and then incubated at 37° C. for 24 h in a 5% CO2−95% humidity incubator. […] Using a fluorescent plate reader (Model 1420 Wallac Instruments), an initial reading (T=0) was made about 1-2 min after addition of the substrate solution, employing excitation at 485 nm and emission at 530 nm, to determine the background fluorescence of the control sample. After the 3 h incubation, the samples were read for fluorescence as above (T=3 h).
The Relative Fluorescence Unit values (RFU) were used to calculate the sample readings as follows: RFU(T=3h)−Control RFU(T=0)=Net RFU(T=3h)
The activity of caspase cascade activation was determined by the ratio of the net RFU value for 2,7,8-triamino-4-(3-bromo-4,5-dimethoxy-phenyl)-3-cyano-4H-chromene or other test compound to that of control samples. The EC50 (nM) was determined by a sigmoidal dose-response calculation (Prism 2.0, GraphPad Software Inc.).

[1] = system: MX1 human breast cancer tumors; assay: In vivo antitumor activity in MX-1 model, combination with cisplatin and doxorubicin; design: species or system mice; conditions: 1R 40 mg/kg, IV
Description: (§1) MX1 human breast cancer tumors were obtained from the NCI-FCRDC and maintained as tumors in nude mice. Tumor bits were implanted with a trocar into the right mammary area of female nu/nu mice and allowed to grow to an average size of 200-250 mg, about 12 days after being implanted. Animals were randomized and assigned to study groups of 8-10 animals/group. Body weight were determined and tumor size were measured by calipers and converted to volume by the standard formula of Vol=L×W^2/2. Compound 1R was formulated in 7% PEG400/9% Tween80/84% D5W and administered IV via the tail vein at the indicated days and doses. Day 1 of the study was the first day of treatment. Survival time was the number of days for the tumor to reach 1000 mg or death, whichever occurred earliest. Median survival is the median for the group.
Mice implanted with MX1 human breast cancer tumors were treated with compound 1R as described in EXAMPLE 11. Cisplatin was administered IP whereas doxorubicin was administered IV at the indicated doses.

HeLa cells = assay: Inhibition of cell proliferation (GI50), HeLa; assay type: cell-based; conditions: Homo sapiens, 72 h, CellTiter-Glo
Description: (§2) Human breast cancer cells MX-1 and MDAMB435, hepatocarcinoma cells SNU398, colon cancer cells HCT116 and HeLa cells were grown and harvested as in Example 7. An aliquot of […] of cells (4.4×10^4 cells/mL) was added to a well of a 96-well microtiter plate containing 5 μL of a 10% DMSO in RPMI-1640 media solution containing 10 nM to 100 μM of R(−)-2,7,8-triamino-4-(3-bromo-4,5-dimethoxy-phenyl)-3-cyano-4H-chromene (1 nM to 10 μM final). An aliquot of 45 μL of cells was added to a well of a 96-well microtiter plate containing 5 μL of a 10% DMSO in RPMI-1640 media solution without compound as the control sample for maximal cell proliferation (LMax). The samples were mixed by agitation and then incubated at 37° C. for 72 h in a 5% CO2−95% humidity incubator. After incubation, the samples were removed from the incubator and 25 μL of CellTiter-Glo™ reagent (Promega) was added. The samples were mixed by agitation and incubated at room temperature for 10-15 min. Plates were then read using a luminescent plate reader (Model SPECTRAfluor Plus, Tecan) to give Ltest values.
(§3) Baseline for GI50 (dose for 50% inhibition of cell proliferation) of initial cell numbers was determined by adding an aliquot of 45 μL of cells or 45 μL of media, respectively, to wells of a 96-well microtiter plate containing 5 μL of a 10% DMSO in RPMI-1640 media solution. […]

MX-1 = assay: Inhibition of cell proliferation (GI50), MX-1; assay type: cell-based; conditions: Homo sapiens; MX1 cells, 72 h, CellTiter-Glo
Description: as §2, §3

SNU398 = assay: Inhibition of cell proliferation (GI50), SNU398; assay type: cell-based; conditions: Homo sapiens, SNU-398; Snu398 cells, 72 h, CellTiter-Glo
Description: as §2, §3

[2] = system: MX1 human breast cancer tumors; assay: In vivo antitumor activity in MX-1 model, single agent; design: species or system mice
Description: as §1

[3] = day 1, 2, 3 (QD × 3), first study (cisplatin day 2)
[4] = day 1, 8, 15 (QW × 3), second study (cisplatin day 2, 9)
[5] = day 1, 8, 15 (QW × 3), third study (doxorubicin)

For COc1cc([C@H]2C(C#N)=C(N)Oc3c2ccc(N)c3N)cc(Br)c1OC [Compound 1R, R(−)-2,7,8-triamino-4-(3-bromo-4,5-dimethoxy-phenyl)-3-cyano-4H-chromene], the EC50 (DLD-1) was 57 nM, the Median survival [1, 3] was 38.5 days and the “Number of tumor free mice at day 91” value [1, 3] was 4 of 9. For the same compound, the Median survival [1, 4] was 35 days, the “Number of tumor free mice at day 91” value [1, 4] was 1 of 7 and the Median survival [1, 5] was 40 days. For the same compound, the “Number of tumor free mice at day 91” value [1, 5] was 1 of 8, the GI50 (HeLa cells) was 25 nM and the GI50 (MX-1) was 17 nM. The GI50 (SNU398) was 28 nM, the Median survival time ([2]; 20 mg/kg IV, once a day for days 1-3 (QD × 3)) was 19 days and the Median survival time ([2]; 20 mg/kg IV, once a day for days 1-5 (QD × 5)) was 46 days. It also gave a Median survival time ([2]; 20 mg/kg IV, once a week, day 1, 8, 15 (QW × 3)) of 27.5 days, a Median survival time ([2]; 40 mg/kg IV, once a day for days 1-3 (QD × 3)) of 38 days and a Median survival time ([2]; 40 mg/kg IV, once a day for days 1-5 (QD × 5)) of over 100 days. For the same compound, the Median survival time ([2]; 40 mg/kg IV, once a week, day 1, 8, 15 (QW × 3)) was 41 days, the Median survival time ([2]; 60 mg/kg IV, once a day for days 1-3 (QD × 3)) was 78 days and the Median survival time ([2]; 60 mg/kg IV, once a week, day 1, 8, 15 (QW × 3)) was 37.5 days.
